In one data set the test system is mouse hepatocytes. In words: Hepatocyte metabolic stability, mouse. Format: in vitro ADME. How it is done: (§1) Biological Example 6: Rat hepatocyte half life Certain Example compounds and Comparator Compound 1 were tested for metabolic stability in a metabolic assay using mouse- and rat-derived hepatocytes. Compounds having good metabolic stability in the assay are expected to be especially useful as agents for preventing and/or treating cancer, by having a long half-life in human patients.
(§2) Frozen pooled rat and mouse hepatocytes obtained from LifeTechnologies were thawed and purified according to the manufacturer's instructions. The test compound (4 mM) in DMSO was diluted with acetonitrile to provide a 100 μM sub-stock then further diluted with pH 7.4 Krebs-Henseleit buffer (supplemented with CaCl2, NaHCO3, HEPES, fructose and glycine) to provide a 2 μM working solution. 25 μL of working solution was incubated at 37° C., treated with 25 μL of rat or mouse hepatocyte suspension (containing 1×10^6 cells/mL) and incubated at 37° C. with 5% CO2 level at 95% relative humidity. Wells were incubated for an appropriate time (0, 15, 30, 45, 60 and 75 min) then quenched with 250 μL of acetonitrile containing reference standards diltiazem, 7-ethoxycoumarin and propranolol). The plates were shaken, sonicated for 5 min then cooled to 4° C. until all sampling was complete. All plates were centrifuged at 4000 rpm for 20 min to pellet the debris. 110 μL supernatant was diluted 110 μL water and quantitated using LC-MS/MS.
(§3) A linear regression curve was fitted to a plot of natural logarithm (In) of AUC against time. The T-half (min)=0.693/slope

Data set [1] concerns SU-DHL-10 cell line (human B cell lymphoma). In words: Cell cytotoxicity in SU-DHL-10 cell line (CellTiter-Glo). It is filed as cell-based. Particulars: 72 h treatment, CTG. In a few lines: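 Cells seeded at 5000-8000/well, dosed next day with 9 concentrations in triplicate (DMSO 0.1% final) and incubated 72 h at 37° C, 5% CO2. Viability by CellTiter-Glo luminescence normalised to vehicle (100%) and medium blank; IC50 from sigmoidal nonlinear regression.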

The subject of data set [2] is CA46 (human B cell lymphoma). In words: Cell cytotoxicity CellTiter-Glo, CA46. Format: cell-based. The method, then:
(§4) Cells were seeded in 96-well microplates and treated with compounds or cisplatin (as a positive control) at 9 increasing concentrations in technical triplicate. […] On day 1, 90 μL of various cell suspensions with the number of cells ranging from 5000-8000 cells/well were seeded into wells of a 96-well plate (Corning). The number of cells to be seeded was previously determined. • 2. All 96-wells plates with cells were placed in an incubator overnight at 37° C. with 5% CO2. • 3. On day 2, cells were observed under a microscope ensuring the cells treated with vehicle control were in good condition. • 4. A dilution series of the test compounds and cisplatin were prepared at 10× the final concentrations required. 10 μL/well of 10× compound solution was added to the corresponding plates. The final volume was 100 μL/well for all the plates. Final DMSO concentration was 0.1%. • 5. On day 5 (after 72 hours of incubation), 50 μL of CTG reagent was added to each well. • 6. Contents were mixed for 5 minutes on an orbital shaker to facilitate cell lysis. • 7. The plate was allowed to incubate at room temperature for 10 minutes to stabilize luminescent signals. […]

Data set [3] relates to MX-1 (human breast carcinoma). In words: Cell cytotoxicity CellTiter-Glo, MX-1. Format: cell-based. To be noted: MX1. The method, then:
as §4

In data set [4] the test system is RKO (human colon carcinoma). In words: Cell cytotoxicity CellTiter-Glo, RKO. Format: cell-based. How it is done:
as §4

The next data set concerns rat hepatocytes. In words: Hepatocyte metabolic stability, rat. Format: in vitro ADME. How it is done: as §1, §2, §3
Data set [5] has as its system DU4475 (human breast carcinoma). In words: Cell cytotoxicity CellTiter-Glo, DU4475. Format: cell-based. To be noted: DU-4475. The method, then: as §4
For another data set, the system named is Caco-2 cells. In words: Caco-2 cell permeability assay. It is filed as in vitro ADME. Particulars: apical to basal Papp, 2 μM, pH 7.4, 2.5 h. Summed up: (§5)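 Caco-2 monolayers grown 10 days were dosed at 2 μM (1% DMSO) on the donor side in HBSS/10 mM HEPES pH 7.4, for both AB and BA directions, then incubated 2.5 h at 37 °C without shaking. Donor and acceptor samples were quantified by LC-MS/MS to give Papp. Wells that failed a Lucifer Yellow integrity check (>1% passage) were excluded.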

Data set [6] in a line: Caco-2 cell permeability assay. Format: in vitro ADME. To be noted: human, Caco-2, pH 7.4, basal to apical Papp, pH 7.4, 2.5 h. In a few lines: as §5
Data set [7] concerns NCI-H1703 (human lung squamous cell carcinoma). In words: Cell cytotoxicity CellTiter-Glo, NCI-H1703. It is filed as cell-based. How it is done: as §4
The test system of data set [8] is HT1080 (human fibrosarcoma). In words: Cell cytotoxicity CellTiter-Glo, HT1080. It is filed as cell-based. To be noted: HT-1080. How it is done: as §4

pIC50: −log10 of the molar value.

As to `CNCc1cnc2ccc(-c3ccc(F)c(F)c3OCCc3c(C(O)C(C)(C)C)nn(C)c3C)cn12` (single isomer, unassigned) [Example 14, 1-(4-(2-(2,3-difluoro-6-(3-((methylamino)methyl)imidazo[1,2-a]pyridin-6-yl)phenoxy)ethyl)-1,5-dimethyl-1H-pyrazol-3-yl)-2,2-dimethylpropan-1-ol], in the data set on mouse hepatocytes, the “mHeps t^1/2” value is on record as 26.73 min. Moreover, the pIC50 was 9.40 in [1]; 8.70 in data set [2]; 8.85 in [3]; 8.70 in [4]; 7.70 in data set [5]; 8.40 in data set [7]. The same compound gave a pIC50 in data set [8] of 9.00. The “rHeps t^1/2” value in the data set with rat hepatocytes is given as 18 min. Also, the “Caco-2 A-B” value with Caco-2 cells is 0.215 ×10⁻⁶ cm/s. For the same compound, the Papp B→A at 2.5 h, 2 μM in data set [6] came to 5.14 ×10⁻⁶ cm/s.

For the origin of these results see patent US12599676B2, “Cytotoxic imidazo[1,2-A]pyridine compounds and their use in therapy” (MyricX Pharma Limited, priority 2022, dated 2026).
